Like-named read-outs stand apart in the source and are kept apart here.
Assay: Pharmacokinetics of Compound A after single oral administration at 200 mg in fasted and fed dogs
Assay type: in vivo, male beagle dogs
Conditions: 200 mg oral dose; for AUC(0-t) / Tmax / half-life / Cmax: male, po, 200 mg; for Tmax: median; for half-life: N = 2, poor linear regression; for Cmax: Gelucire 50/13 size 00 hard gelatin capsule, N=3
Protocol: Example 8: Pharmacokinetics of Compound a after Single Oral Administration at 200 Mg in Fasted and Fed Dogs
A pharmacokinetic (PK) study was carried out using a Compound A stearoyl polyoxy-32 glycerides formulation.
A formulation of compound A and stearoyl polyoxy-32 glycerides (Gelucire® 50/13) in size 00 hard gelatin capsules (200 mg dose per capsule), according to Table 3, was administered orally to male beagle dogs (N=3) in a fasted state as well as a fed state.

[1] = beagle, dog, plasma, fasted male dogs, Gelucire 50/13 hard gelatin capsule
[2] = beagle, dog, plasma, fed male dogs, Gelucire 50/13 hard gelatin capsule

## O=C(Nc1ccnc(C(F)(F)F)c1)c1cnn(-c2cccc3c(=O)[nH]ccc23)c1C(F)(F)F [Compound A, 1-(1-oxo-1,2-dihydroisoquinolin-5-yl)-5-(trifluoromethyl)-N-(2-(trifluoromethyl)pyridin-4-yl)-1H-pyrazole-4-carboxamide]
beagle, dog, plasma, fasted male dogs, Gelucire 50/13 hard gelatin capsule, mean
  AUC(0-inf): 578 µg·h/mL
Fed male dogs, fasted group as reference
  Fed vs Fasted: 1.3
beagle, dog, plasma, fasted male dogs, Gelucire 50/13 hard gelatin capsule, mean, read-out: AUC0-24 h
  AUC(0-t): 246 µg·h/mL
beagle, dog, plasma, fasted male dogs, Gelucire 50/13 hard gelatin capsule, mean, read-out: AUC0-96 h
  AUC(0-t): 521 µg·h/mL
[1]
  Tmax: 2 h
  half-life: 30 h
beagle, dog, plasma, fasted male dogs, mean
  Cmax: 16000 ng/mL
beagle, dog, plasma, fed male dogs, Gelucire 50/13 hard gelatin capsule, mean, read-out: AUC0-24 h
  AUC(0-t): 121 µg·h/mL
beagle, dog, plasma, fed male dogs, Gelucire 50/13 hard gelatin capsule, mean, read-out: AUC0-96 h
  AUC(0-t): 502 µg·h/mL
[2]
  Tmax: 24 h
  half-life: 34 h
beagle, dog, plasma, fed male dogs, mean
  Cmax: 9330 ng/mL

From patent US20230310413A1, “PHARMACEUTICAL FORMULATIONS COMPRISING A MALT1 INHIBITOR AND A MIXTURE OF POLYETHYLENE GLYCOL WITH A FATTY ACID” (JANSSEN PHARMACEUTICA NV, priority 2020, published 2023)
